Data: paper PMC7038234, “Screening of Natural Extracts for Inhibitors against Japanese Encephalitis Virus Infection” (Antimicrobial Agents and Chemotherapy, 2020)
Read-outs that look alike come from different tables or passages of the source.

Tests used:
[1] = tested on: JEV; conditions: cited from earlier work
[2] = Cytotoxicity / cell viability on Vero cells; conditions: African green monkey
[3] = tested on: JEV strains AT31 and SA14; test: Plaque assay of virus production in culture supernatants (Vero, Huh-7, U251 cells); format: cell-based, Japanese encephalitis virus
[4] = tested on: JEV strain SA14; test: qRT-PCR of JEV RNA levels in Vero cell lysates; format: cell-based, Japanese encephalitis virus; conditions: Vero cells, high-, middle- and low-dose-treated groups
[5] = tested on: JEV; format: cell-based, Japanese encephalitis virus
[6] = tested on: JEV AT31; test: Addition of sodium and potassium assay (plaque assay); conditions: Vero cells, AT31, NaCl 0-100 mM, KCl 0-25 mM
[7] = tested on: JEV SA14 replicon; test: JEV reporter replicon assay (Renilla luciferase) in Huh-7 cells; conditions: for JEV RNA synthesis (replicon luciferase signal): 24 h postelectroporation
[8] = tested on: JEV strain SA14; test: Immunofluorescence staining assay (IFA), SA14 infection of Vero cells
[9] = tested on: JEV (AT31); test: Antiviral efficacy in JEV-infected BALB/c mice; format: in vivo, BALB/c mouse
Experimental: Adult male BALB/c mice (4 weeks) were randomly divided into three groups: the JEV-infected and vehicle (0.75% DMSO in normal saline)-treated group, the JEV-infected and ouabain-treated group, and the ouabain-treated group. For infection, mice were infected intraperitoneally (i.p.) with a dose of 1 × 10^6 PFU JEV (AT31). The infected mice were i.p. administered with ouabain at 3 mg/kg of body weight or a vehicle control every day for 21 consecutive days. Mice were sacrificed at day 1, 3, 7, 10, or 21, depending on the experimental design. Blood, spleen, and brain samples were collected for plaque assay, qRT-PCR, and histopathology investigation (Vectra ss; PerkinElmer).
The viral burden was determined by plaque assay. The samples were weighed and homogenized in 300 μl of PBS. The homogenates were clarified by centrifugation (2,000 × g at 4°C) for 15 min and then diluted serially prior to infection of BHK-21 cells. The viral titer was adjusted for sample volume and tissue weight to calculate the titer as PFU/g.
Tissue samples and blood from JEV-infected mice were extracted with the RNAprep pure tissue kit (Tiangen; catalog no. DP431) and RNAprep pure blood kit (Tiangen; catalog no. DP433), respectively. JEV RNA levels were determined by one-step qRT-PCR on ABI Real-Time PCR systems using standard cycling conditions. The viral burden was calculated on a standard curve produced using serial 10-fold dilutions of plasmids carrying the infectious clone.
For histopathology investigation, brain tissues were collected from the mice and fixed in 4% paraformaldehyde; the hematoxylin-eosin staining protocol was followed for tissue staining.

[10] = JEV-infected BALB/c mice, ouabain 3 mg/kg i.p. daily, 21 days

For `CCCCCCN(CCCCCC)C(=O)Cc1c(-c2ccc(F)cc2)[nH]c2ccccc12` [FGIN-1-27], the JEV infection [1] is given as “reduced the JEV infection in vitro”.

For `COC1=CC23CCCN2CCc2cc4c(cc2C3C1O)OCO4` (centres unmarked) [cephalotaxlen], the CC50 [2] was > 100 µM.

In the case of `C[C@H]1O[C@@H](O[C@H]2[C@@H](O)C[C@H](O[C@H]3[C@@H](O)C[C@H](O[C@H]4CC[C@@]5(C)[C@H](CC[C@@H]6[C@@H]5C[C@@H](O)[C@]5(C)[C@@H](C7=CC(=O)OC7)CC[C@]65O)C4)O[C@@H]3C)O[C@@H]2C)C[C@H](O)[C@@H]1O` [digoxin], the “reduction of AT31 and SA14 virus production” value ([3]; Vero cells, plaque assay, highest concentration) is reported as 4 to 6 log units, the “attenuated RNA levels of the SA14 strain” value [4] is reported as “above 40%” and the “adaptive (drug-resistant) mutant” value [5] is reported as “no adaptive mutant was found”. For the same molecule, the CC50 [2] was > 100 µM, the “dependence of JEV-inhibiting effect on extracellular NaCl and KCl” value [6] was “positively correlated with extracellular NaCl but inversely correlated with KCl” and the “initial translation of replicon RNA” value [7] was “neither drug inhibited”. For the same molecule, the “JEV RNA synthesis (replicon luciferase signal)” value [7] was “inhibited JEV RNA synthesis in a dose-dependent manner” and the SA14 reproduction ([8]; digoxin 392 nM) was “greatly inhibited”.

In the case of `Cc1cc(O)c2c(c1)C(=O)c1cc(O)cc(O)c1C2=O` [emodin], the CC50 [2] is reported as > 100 µM.

For `O[C@H]1[C@H]2c3cc4c(cc3CN3CCC(=C[C@@H]1O)[C@H]23)OCO4` [lycorine], the CC50 [2] was > 100 µM.

In the case of `COC(=O)C1=C(C)NC(C)=C(C(=O)OCCN2CCN(C(c3ccccc3)c3ccccc3)CC2)C1c1cccc([N+](=O)[O-])c1` (centres unmarked) [manidipine], the JEV infection [1] is given as “inhibited JEV infection in vitro and in vivo”.

In the case of `C[C@@H]1O[C@@H](O[C@H]2C[C@@H](O)[C@]3(CO)[C@H]4[C@H](O)C[C@]5(C)[C@@H](C6=CC(=O)OC6)CC[C@]5(O)[C@@H]4CC[C@]3(O)C2)[C@H](O)[C@H](O)[C@H]1O` [ouabain], the “reduction of AT31 and SA14 virus production” value [3] is reported as 4 to 6 log units, the “attenuated RNA levels of the SA14 strain” value [4] is reported as “above 40%” and the animals survived [9, 10] is reported as 8 out of 14. For the same molecule, the survival rate [9, 10] was ~60%, the “histopathological changes in brain” value ([9]; day 7 postinfection, meningitis, perivascular cuffing, vacuolar degeneration) was “remarkably alleviated” and the “plaques from brain on day 21 postinfection” value ([9]; day 21 postinfection, plaque assay) was “no plaques formed”. For the same molecule, the “viral load in brain (plaque assay)” value ([9]; days 7, 10 and 21 postinfection, versus untreated infected mice) was “significantly reduced viral load”, the “effect on viral titers in the brain at the preclinical stage” value ([9]; qRT-PCR, days 1 and 3 postinfection) was “little effect” and the “effect on decreasing viral titers in the blood and spleen” value ([9]; qRT-PCR, earlier time points (days 1 and 3)) was “little effect”. The “behavior of mice treated with ouabain alone” value ([9]; uninfected BALB/c mice, ouabain 3 mg/kg i.p. daily) was “little abnormal behavior”, the “adaptive (drug-resistant) mutant” value [5] was “no adaptive mutant was found” and the CC50 [2] was > 100 µM. The “dependence of JEV-inhibiting effect on extracellular NaCl and KCl” value [6] was “positively correlated with extracellular NaCl but inversely correlated with KCl”, the “initial translation of replicon RNA” value [7] was “neither drug inhibited” and the “JEV RNA synthesis (replicon luciferase signal)” value [7] was “inhibited JEV RNA synthesis in a dose-dependent manner”. The SA14 reproduction ([8]; ouabain 98 nM) was “greatly inhibited”.

For `Oc1cc(O)c2c(c1)OC(c1ccc(O)c(O)c1)C(OC1(c3ccc(O)c(O)c3)Oc3cc(O)cc(O)c3C(O)C1O)C2` (centres unmarked) [procyanidin], the CC50 [2] was > 100 µM.

Work on `COc1cc2c(c(OC)c1OC)-c1c(cc(OC)c(OC)c1OC)C[C@H](C)[C@H](C)C2` [schizandrin A] yielded a CC50 [2] of 100 µM.

In the case of `COc1cc2c(c(OC)c1OC)-c1c(cc3c(c1OC)OCO3)CC(C)C(C)C2` (centres unmarked) [schizandrin B], the CC50 [2] is reported as > 100 µM.
